Reference: patent publication US20010044445A1, “AZOLE INHIBITORS OF CYTOKINE PRODUCTION” (priority 1999, published 2001)

Tests used:
[1] = tested on: Human peripheral blood mononuclear cells; test: Human Concanavalin-A Proliferation Assay (Con HU Assay); type: cell-based; conditions: Homo sapiens, PBMC, concanavalin-A stimulated human PBMC; for inhibition at 10 µM / inhibition at 1 µM / inhibition at 100 µM: 72 h, 3 days, read-out: % Inhibition of proliferation (at concentrations of 1,10, or 100 μm); for inhibition at 10 µM: concentration 10 μm (in parentheses in the cell); for inhibition at 1 µM: concentration 1 μm (in parentheses in the cell); for IC50: tritiated thymidine; for inhibition at 100 µM: concentration 100 μm (in parentheses in the cell)
Method in brief: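 Proliferation read as tritiated thymidine uptake (0.5 μCi/well, 6 h pulse on day 3) in human PBMC cultured 3 days with 2.5 μg/ml (final) concanavalin-A. Cells, 50,000 per well in supplemented RPMI 1640 with 10% FBS, received compound 15 min before mitogen.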

Row | Compound | inhibition at 10 µM [1] [%] | melting point [°C] | inhibition at 1 µM [1] [%] | IC50 [1] [nM] | inhibition at 100 µM [1] [%]
1 | COc1cc(-n2nc(C(F)(F)F)cc2C(F)(F)F)ccc1NC(=O)c1snnc1C [Example 280, N-[4-[3,5-bis(trifluoromethyl)-1H-pyrazol-1-yl]-2-methoxyphenyl]-4-methyl-1,2,3-thiadiazole-5-carboxamide] | 16 | 119 to 121 | – | – | –
2 | Cc1cc(-n2nc(C(F)(F)F)cc2C(F)(F)F)ccc1NC(=O)c1snnc1C [Example 279, N-[4-[3,5-bis(trifluoromethyl)-1H-pyrazol-1-yl]-2-methylphenyl]-4-methyl-1,2,3-thiadiazole-5-carboxamide] | – | 196 to 197 | 6 | – | –
3 | CS(=O)(=O)c1csc(C(=O)Nc2ccc(-n3nc(C(F)(F)F)cc3C(F)(F)F)cc2)c1Cl [Example 165, N-[4-[3,5-bis(trifluoromethyl)-1H-pyrazol-1-yl]phenyl]-3-chloro-4-(methylsulfonyl)-2-thiophenecarboxamide] | 57 | 210 to 212 | – | 6700 | –
4 | O=C(Nc1cccc(-n2nc(C(F)(F)F)cc2C(F)(F)F)c1)c1ccc(F)cc1F [Example 203, N-[3-[3,5-bis(trifluoromethyl)-1H-pyrazol-1-yl]phenyl]-2,4-difluorobenzamide] | – | 133 to 134 | 1 | – | –
5 | O=C(Nc1ccc(-n2nc(C(F)(F)F)cc2C(F)(F)F)nc1)c1cc(F)c(F)cc1Cl [Example 262, N-[2-[3,5-bis(trifluoromethyl)-1H-pyrazol-1-yl]-5-pyridinyl]-2-chloro-4,5-difluorobenzamide] | 100 | 113 to 116 | – | 419 | –
6 | Nc1ccccc1C(=O)Nc1ccc(-n2nc(C(F)(F)F)cc2C(F)(F)F)cc1 [Example 163, 2-amino-N-[4-[3,5-bis(trifluoromethyl)-1H-pyrazol-1-yl]phenyl]benzamide] | – | 204 to 206 | – | 235 | 98
7 | O=C(CCCl)Nc1ccc(-n2nc(C(F)(F)F)cc2C(F)(F)F)cc1 [Example 70, N-[4-[3,5-bis(trifluoromethyl)-1H-pyrazol-1-yl]phenyl]-3-chloropropanamide] | – | 144 to 145 | – | 913 | 100
8 | O=C(Nc1ccc(-n2nc(C(F)(F)F)cc2C(F)(F)F)cc1)c1ccc(F)cc1Cl [Example 206, N-[4-[3,5-bis(trifluoromethyl)-1H-pyrazol-1-yl]phenyl]-2-chloro-4-fluorobenzamide] | 100 | 155 to 157 | – | 61 | –
9 | COC(=O)c1cccc(C(=O)Nc2ccc(-n3nc(C(F)(F)F)cc3C(F)(F)F)cc2)c1 [Example 129, Methyl 3-[[[4-[3,5-bis(trifluoromethyl)-1H-pyrazol-1-yl]phenyl]amino]carbonyl]benzoate] | – | 174 to 175 | – | 380 | 100
10 | O=C(Nc1ccc(-n2nc(C(F)(F)F)cc2C(F)(F)F)cc1)c1c(F)cccc1Cl [Example 212, N-[4-[3,5-bis(trifluoromethyl)-1H-pyrazol-1-yl]phenyl]-2-chloro-6-fluorobenzamide] | 99 | 165 to 167 | – | 70 | –
11 | N#Cc1ccc(C(=O)Nc2ccc(-n3nc(C(F)(F)F)cc3C(F)(F)F)cc2)cc1 [Example 67, N-[4-[3,5-bis(trifluoromethyl)-1H-pyrazol-1-yl]phenyl]-4-cyanobenzamide] | – | 169 to 171 | – | 254 | 100
12 | O=C(Nc1ccc(-n2nc(C(F)(F)F)cc2C(F)(F)F)cc1)C1CC1 [Example 1, N-[4-[3,5-bis(trifluoromethyl)-1H-pyrazol-1-yl]phenyl]cyclopropanecarboxamide] | – | 204 to 205 | 68 | – | –
13 | O=C(Nc1ccc(-n2nc(C(F)(F)F)cc2C(F)(F)F)cc1)c1ccc(F)cc1 [Example 90, N-[4-[3,5-bis(trifluoromethyl)-1H-pyrazol-1-yl]phenyl]-4-fluorobenzamide] | – | 184 to 186 | – | 144 | 98
14 | O=C(Nc1ccc(-n2nc(C(F)(F)F)cc2C(F)(F)F)cc1)Nc1cccc([N+](=O)[O-])c1 [Example 31, N-[4-[3,5-bis(trifluoromethyl)-1H-pyrazol-1-yl]phenyl]-N′-(3-nitrophenyl)urea] | – | 203 to 204 | – | 4040 | 100
15 | O=C(Nc1ccc(-n2nc(C(F)(F)F)cc2Br)cc1)c1cccc(F)c1F [Example 348, N-(4-(5-bromo-3-(trifluoromethyl)-1H-pyrazol-1-yl)phenyl)-2,3-difluorobenzamide] | – | 109 to 112 | – | 114 | –
16 | CC(=O)c1cc(C(F)(F)F)nn1-c1ccc(NC(=O)c2cccnc2F)cc1 [Example 315, N-(4-(5-acetyl-3-(trifluoromethyl)-1H-pyrazol-1-yl)phenyl)-2-fluoronicotinamide] | – | 188 to 189 | – | 320 | –
17 | CC(=O)Oc1ccccc1C(=O)Nc1ccc(-n2nc(C(F)(F)F)cc2C(F)(F)F)cc1 [Example 76, 2-(Acetyloxy)-N-[4-[3,5-bis(trifluoromethyl)-1H-pyrazol-1-yl]phenyl]benzamide] | – | 159 to 161 | – | 3170 | 100
18 | O=C(Nc1ccc(-n2nc(C(F)(F)F)cc2C(F)(F)F)cc1)c1ccccc1 [Example 92, N-[4-[3,5-bis(trifluoromethyl)-1H-pyrazol-1-yl]phenyl]benzamide] | – | 177 to 178 | – | 673 | 92
19 | COc1ccc(Br)c(C(=O)Nc2ccc(-n3nc(C(F)(F)F)cc3C(F)(F)F)cc2)c1 [Example 219, N-[4-[3,5-bis(trifluoromethyl)-1H-pyrazol-1-yl]phenyl]-2-bromo-5-methoxybenzamide] | 100 | 179 to 181 | – | 214 | –
20 | O=C(Nc1ccc(-n2nc(-c3ccoc3)cc2Cl)cc1)c1ccncc1F [Example 356, N-(4-(5-chloro-3-(3-furyl)-1H-pyrazol-1-yl)phenyl)-3-fluoroisonicotinamide] | – | 165 to 166 | – | 247 | –
21 | O=C(Nc1cccc(-n2nc(C(F)(F)F)cc2C(F)(F)F)c1)c1cc([N+](=O)[O-])ccc1Cl [Example 199, N-[3-[3,5-bis(trifluoromethyl)-1H-pyrazol-1-yl]phenyl]-2-chloro-5-nitrobenzamide] | – | 147 to 152 | 30 | – | –
22 | O=C(Nc1ccc(-n2nc(C(F)(F)F)cc2C(F)(F)F)cc1)c1cccc(Cl)c1F [Example 214, N-[4-[3,5-bis(trifluoromethyl)-1H-pyrazol-1-yl]phenyl]-3-chloro-2-fluorobenzamide] | 100 | 113 to 116 | – | 68 | –
23 | CC1(C(=O)Nc2ccc(-n3nc(C(F)(F)F)cc3C(F)(F)F)cc2)CC1(Cl)Cl (stereo not drawn) [Example 3, N-[4-[3,5-bis(trifluoromethyl)-1H-pyrazol-1-yl]phenyl]-2,2-dichloro-1-methylcyclopropanecarboxamide] | 100 | 143 to 145 | – | 328 | –
24 | CC(=O)c1ccc(NC(=O)Nc2ccc(-n3nc(C(F)(F)F)cc3C(F)(F)F)cc2)cc1 [Example 42, N-(4-acetylphenyl)-N′-[4-[3,5-bis(trifluoromethyl)-1H-pyrazol-1-yl]phenyl]urea] | – | 230 to 231 | 9 | – | –
25 | Cc1nnsc1C(=O)Nc1ccc(-n2nc(C(F)(F)F)cc2Br)cc1 [Example 335, N-(4-(5-bromo-3-(trifluoromethyl)-1H-pyrazol-1-yl)phenyl)-4-methyl-1,2,3-thiadiazole-5-carboxamide] | – | 145 to 147 | – | 103 | –
26 | O=C(Nc1ccc(-n2nc(C(F)(F)F)cc2C(F)(F)F)cc1)c1ccnc(Cl)c1 [Example 245, N-[4-[3,5-bis(trifluoromethyl)-1H-pyrazol-1-yl]phenyl]-2-chloro-4-pyridinecarboxamide] | – | 183 to 184 | – | 279 | 100
27 | N#Cc1cccc(/C=C/c2ccc(-n3nc(C(F)(F)F)cc3C(F)(F)F)cc2)c1 [Example 132, (E)-3-[2-[4-[3,5-bis(trifluoromethyl)-1H-pyrazol-1-yl]phenyl]ethenyl]benzonitrile] | 56 | 116 to 117 | – | 6220 | –
28 | N#Cc1ccc(NC(=O)c2ccc(-n3nc(C(F)(F)F)cc3C(F)(F)F)cc2)cc1 [Example 193, 4-[3,5-Bis(trifluoromethyl)-1H-pyrazol-1-yl]-N-(4-cyanophenyl)benzamide] | – | 192 to 193 | 8 | – | –
29 | N#Cc1cccc(C(=O)Nc2cccc(-n3nc(C(F)(F)F)cc3C(F)(F)F)c2)c1 [Example 204, N-[3-[3,5-bis(trifluoromethyl)-1H-pyrazol-1-yl]phenyl]-3-cyanobenzamide] | – | 160 to 161 | 12 | – | –
30 | CCOC(=O)c1cccc(NC(=O)Nc2ccc(-n3nc(C(F)(F)F)cc3C(F)(F)F)cc2)c1 [Example 13, ethyl 3-[[[[4-[3,5-bis(trifluoromethyl)-1H-pyrazol-1-yl]phenyl]amino]carbonyl]amino]-benzoate] | – | 211 to 212 | – | 2840 | 99
